Source: patent US12275684B2, “Methods for making and using endoxifen” (Atossa Therapeutics, Inc., priority 2017, dated 2025)
Where “and” joins values, the source holds several entries; their conditions need not be identical. Equal entries are not always repeated. Where two headings read alike, the source gives them in different places.

Legend:
[1] = Accelerated 10-day stability study of solid (Z)-endoxifen free base (E/Z by HPLC); type: physicochemical; conditions: for (E)-endoxifen content / (Z)-endoxifen content / E/Z ratio / Total Impurity: solid
Experimental: HPLC-UV analyses of the samples was carried out using a Luna phenyl-hexyl column (4.6 mm×150 mm×3 μm of particle size). The column temperature was 40° C. and sample compartment temperature was maintained at ambient temperature. Samples were prepared by dissolving solids and filtrates at 0.2 mg/ml of sample in methanol as sample buffer. Samples were then injected into the column in an injection volume of 20 μl. Likewise, mildly acidic (pH 4.3) ammonium formate buffer/methanol in the mobile phase with gradient elution was used. Mobile phase system consisting of: Mobile Phase A (MPA) buffer was 10 mM HCOONH4 with 0.03% HCOOH buffer in water, and Mobile Phase B (MBP) buffer was 10 mM HCOONH4 in methanol with a gradient program used.
The run time was 30 m, the flow rate was 1.0 mL/m, and the delay time was 5 m. Samples were detected by UV detection at 243 nm. Retention times were typically from 12.95 to 13.20 m for (E)-endoxifen and from 14.0 to 14.33 m for (Z)-endoxifen. Relative Retention Time (RRT) for (E)-endoxifen was […] and 1.0 for (Z)-endoxifen.
The stability of (Z)-endoxifen free base Sample 1 of Table 11 was studied when stored at various temperatures in solid form and in ethanol (EtOH) solution. The (E)-endoxifen and (Z)-endoxifen levels were measured on days 2, 7 and 10 following placement of 1 g aliquots of purified (Z)-endoxifen free base in 180 mL HDPE bottles under dry N2, which were then placed in double LDPE bags. The double bagged HDPE bottles containing each sample were individually packed in aluminum foil bags and thermally sealed until they were opened for testing the stability of the samples. The (E)- and (Z)-isomers of endoxifen were monitored by HPLC as disclosed above. The purity of (Z)-endoxifen in solid form remained at about 97% at 40° C., 60° C., and 80° C. up to 10 days.

[2] = Bulk drug stability study of (Z)-endoxifen free base; type: physicochemical
Experimental: For bulk stability studies, ˜1 g aliquots of (Z)-endoxifen free base were placed inside individually in double LDPE bags tied with a nylon cable tie. The LDPE bags were then placed in aluminum foil bags and thermally sealed. The samples for stability were placed in tightly capped, 180 mL HDPE bottles under inert conditions (dry nitrogen) at 5° C. and 25° C./60% RH for 12 months, and at 40° C./75% RH for 3 months. The samples were tested for (E)-endoxifen and (Z)-endoxifen concentrations and impurities, moisture or water content by Karl Fischer titration, aerobic bacterial colony forming units and appearance at time points day 0, 10 days, 1 m and 3 m. Table 13 below provides bulk drug stability data at 9 m on endoxifen free base at varying storage conditions.

[3] = Comparison of (Z)-endoxifen concentrations (oral) with published literature (Table 22); type: in vivo
[4] = cited from earlier work

purity of (Z)-endoxifen in solid form ([1]; 40° C., 60° C., and 80° C. up to 10 days): about 97%
(E)-endoxifen content ([1]; 40° C., 2 days): 1.27%
(Z)-endoxifen content ([1]; 40° C., 2 days): 97.45%
E/Z ratio ([1]; 40° C., 2 days): 1/76
Total Impurity ([1]; 40° C., 2 days): 1.28%
(E)-endoxifen content ([1]; 40° C., 7 days): 1.2%
(Z)-endoxifen content ([1]; 40° C., 7 days): 97.11%
E/Z ratio ([1]; 40° C., 7 days): 1/81
Total Impurity ([1]; 40° C., 7 days): 1.69%
(E)-endoxifen content ([1]; 40° C., 10 days): 1.29%
(Z)-endoxifen content ([1]; 40° C., 10 days): 97.31%
E/Z ratio ([1]; 40° C., 10 days): 1/75
Total Impurity ([1]; 40° C., 10 days): 1.40%
(E)-endoxifen content ([1]; 60° C., 2 days): 1.30%
(Z)-endoxifen content ([1]; 60° C., 2 days): 97.43%
E/Z ratio ([1]; 60° C., 2 days): 1/75
Total Impurity ([1]; 60° C., 2 days): 1.27%
(E)-endoxifen content ([1]; 60° C., 7 days): 1.17%
(Z)-endoxifen content ([1]; 60° C., 7 days): 97.1%
E/Z ratio ([1]; 60° C., 7 days): 1/83
Total Impurity ([1]; 60° C., 7 days): 1.72%
(E)-endoxifen content ([1]; 60° C., 10 days): 1.27%
(Z)-endoxifen content ([1]; 60° C., 10 days): 97.48%
E/Z ratio ([1]; 60° C., 10 days): 1/82
Total Impurity ([1]; 60° C., 10 days): 1.33%
(E)-endoxifen content ([1]; 80° C., 2 days): 1.28%
(Z)-endoxifen content ([1]; 80° C., 2 days): 97.42%
E/Z ratio ([1]; 80° C., 2 days): 1/76
Total Impurity ([1]; 80° C., 2 days): 1.30%
(E)-endoxifen content ([1]; 80° C., 7 days): 1.34%
(Z)-endoxifen content ([1]; 80° C., 7 days): 96.92%
E/Z ratio ([1]; 80° C., 7 days): 1/72
Total Impurity ([1]; 80° C., 7 days): 1.74%
(E)-endoxifen content ([1]; 80° C., 10 days): 1.27%
(Z)-endoxifen content ([1]; 80° C., 10 days): 97.33%
E/Z ratio ([1]; 80° C., 10 days): 1/77
Total Impurity ([1]; 80° C., 10 days): 1.40%
interconversion of (Z)- to (E)-endoxifen in solid form ([1]; tested temperatures up to 10 days): does not interconvert to (E)-endoxifen
time for which stable ([2]; 40° C./75% RH): at least 3 months
(Z)-endoxifen USP <921≥ Plate Count ([2]; Storage 5° C.): 13990 cfu g/mL
(E)-endoxifen content ([2]; Storage 5° C., 0 m): 0.19%
(Z)-endoxifen % Purity ([2]; Storage 5° C., 0 m): 99.5%
Max Indiv. Impurity ([2]; Storage 5° C., 0 m): 0.11%
Water content (Karl Fischer) ([2]; Storage 5° C., 0 m): 0.06%
(E)-endoxifen content ([2]; Storage 5° C., 3 m): 0.17%
(Z)-endoxifen % Purity ([2]; Storage 5° C., 3 m): 99.6%
Max Indiv. Impurity ([2]; Storage 5° C., 3 m): 0.10%
Water content (Karl Fischer) ([2]; Storage 5° C., 3 m): 0.05%
(E)-endoxifen content ([2]; Storage 5° C., 6 m): 0.18%
(Z)-endoxifen % Purity ([2]; Storage 5° C., 6 m): 99.5%
Max Indiv. Impurity ([2]; Storage 5° C., 6 m): 0.11%
Water content (Karl Fischer) ([2]; Storage 5° C., 6 m): 0.05%
(E)-endoxifen content ([2]; Storage 5° C., 9 m): 0.19%
(Z)-endoxifen % Purity ([2]; Storage 5° C., 9 m): 99.5%
Max Indiv. Impurity ([2]; Storage 5° C., 9 m): 0.11%
Water content (Karl Fischer) ([2]; Storage 5° C., 9 m): 0.05%
(Z)-endoxifen USP <921≥ Plate Count ([2]; Storage 25° C./60% RH): 14030 cfu g/mL
(E)-endoxifen content ([2]; Storage 25° C./60% RH, 0 m): 0.19%
(Z)-endoxifen % Purity ([2]; Storage 25° C./60% RH, 0 m): 99.5%
Max Indiv. Impurity ([2]; Storage 25° C./60% RH, 0 m): 0.11%
Water content (Karl Fischer) ([2]; Storage 25° C./60% RH, 0 m): 0.06%
(E)-endoxifen content ([2]; Storage 25° C./60% RH, 3 m): 0.17%
(Z)-endoxifen % Purity ([2]; Storage 25° C./60% RH, 3 m): 99.6%
Max Indiv. Impurity ([2]; Storage 25° C./60% RH, 3 m): 0.11%
Water content (Karl Fischer) ([2]; Storage 25° C./60% RH, 3 m): 0.05%
(E)-endoxifen content ([2]; Storage 25° C./60% RH, 6 m): 0.18%
(Z)-endoxifen % Purity ([2]; Storage 25° C./60% RH, 6 m): 99.5%
Max Indiv. Impurity ([2]; Storage 25° C./60% RH, 6 m): 0.11%
Water content (Karl Fischer) ([2]; Storage 25° C./60% RH, 6 m): 0.06%
(E)-endoxifen content ([2]; Storage 25° C./60% RH, 9 m): 0.19%
(Z)-endoxifen % Purity ([2]; Storage 25° C./60% RH, 9 m): 99.5%
Max Indiv. Impurity ([2]; Storage 25° C./60% RH, 9 m): 0.11%
Water content (Karl Fischer) ([2]; Storage 25° C./60% RH, 9 m): 0.07%
(Z)-endoxifen USP <921≥ Plate Count ([2]; Storage 40° C./75% RH): 13776 cfu g/mL
(E)-endoxifen content ([2]; Storage 40° C./75% RH, 0 m): 0.19%
(Z)-endoxifen % Purity ([2]; Storage 40° C./75% RH, 0 m): 99.5%
Max Indiv. Impurity ([2]; Storage 40° C./75% RH, 0 m): 0.11%
Water content (Karl Fischer) ([2]; Storage 40° C./75% RH, 0 m): 0.06%
(E)-endoxifen content ([2]; Storage 40° C./75% RH, 3 m): 0.17%
(Z)-endoxifen % Purity ([2]; Storage 40° C./75% RH, 3 m): 99.5%
Max Indiv. Impurity ([2]; Storage 40° C./75% RH, 3 m): 0.11%
Water content (Karl Fischer) ([2]; Storage 40° C./75% RH, 3 m): 0.07%
time for which stable ([2]; ambient temperature): at least 9 months
time for which stable ([2]; solid, 5° C.): at least 9 months
time for which stable ([2]; solid, 25° C./60% RH): at least 9 months
aerobic bacterial plate count TAC ([2]; storage conditions studied): less than 20,000 cfu g/mL
water content ([2]; storage conditions studied): not more than 1%
% Ratio of Css Study/Literature ([3]; oral dose 1 mg): 154%
Study Result of Average Serum (Z)-Endoxifen Css ([3]; oral dose 1 mg): 19.1 ng/mL and 51.1 nM
% Ratio of Css Study/Literature ([3]; oral dose 2 mg): 204%
Study Result of Average Serum (Z)-Endoxifen Css ([3]; oral dose 2 mg): 38 ng/mL and 101.7 nM
% Ratio of Css Study/Literature ([3]; oral dose 4 mg): 150%
Study Result of Average Serum (Z)-Endoxifen Css ([3]; oral dose 4 mg): 85.1 ng/mL and 227.9 nM
SMILES: CC/C(=C(\c1ccc(O)cc1)c1ccc(OCCNC)cc1)c1ccccc1 [(Z)-Endoxifen, (Z)-4-(1-(4-(2-(methylamino)ethoxy)phenyl)-2-phenylbut-1-enyl) phenol]
Published Literature Result of Average Plasma (Z)-Endoxifen Css ([4]; oral dose 1 mg): 12.4 ng/mL and 33.1 nM
Published Literature Result of Average Plasma (Z)-Endoxifen Css ([4]; oral dose 2 mg): 18.6 ng/mL and 49.8 nM
Published Literature Result of Average Plasma (Z)-Endoxifen Css ([4]; oral dose 4 mg): 56.8 ng/mL and 152.1 nM
Published Literature Result of Average Plasma (Z)-Endoxifen Css ([4]; oral dose 8 mg): 96.8 ng/mL and 259.2 nM
